In US20140024527A1, “HERBICIDAL PYRAZINONES” (E I DU DE NEMOURS AND COMPANY, priority 2011, published 2014):

Tests used:
Assay in all cases: Test B flooded paddy test
Type in all cases: in vivo
[1] = system: umbrella sedge (Cyperus difformis); conditions: Flood, scale 0 to 100
From the text: (§1) Plant species in the flooded paddy test consisted of rice (Oryza sativa), umbrella sedge (Cyperus difformis), ducksalad (Heteranthera limosa) and barnyardgrass (Echinochloa crus-galli) grown to the 2-leaf stage for testing. At time of treatment, test pots were flooded to 3 cm above the soil surface, treated by application of test compounds directly to the paddy water, and then maintained at that water depth for the duration of the test. Treated plants and controls were maintained in a greenhouse for 13 to 15 days, after which time all species were compared to controls and visually evaluated. Plant response ratings, summarized in Table B, are based on a scale of 0 to 100 where 0 is no effect and 100 is complete control. A dash (-) response means no test result.

rice (Oryza sativa) = conditions: Flood, scale 0 to 100
From the text: as §1

[2] = system: ducksalad (Heteranthera limosa); conditions: Flood, scale 0 to 100
From the text: as §1

[3] = system: barnyardgrass (Echinochloa crus-galli); conditions: Flood
From the text: as §1

[4] = 250 g ai/ha, scale 0 to 100 (0 no effect, 100 complete control)

Structure (SMILES)	Plant response rating, Sedge, Umbrella ([1]; 31 g ai/ha)	Plant response rating, Sedge, Umbrella ([1]; 62 g ai/ha)	Plant response rating, Sedge, Umbrella ([1]; 125 g ai/ha)	Plant response rating, Sedge, Umbrella ([1]; 250 g ai/ha)	Plant response rating, Rice (rice (Oryza sativa); 31 g ai/ha)	Plant response rating, Rice (rice (Oryza sativa); 62 g ai/ha)	Plant response rating, Rice (rice (Oryza sativa); 125 g ai/ha)	Plant response rating, Rice (rice (Oryza sativa); 250 g ai/ha)	Plant response rating, Ducksalad ([2]; 31 g ai/ha)	Plant response rating, Ducksalad ([2]; 62 g ai/ha)	Plant response rating, Ducksalad ([2]; 125 g ai/ha)	Plant response rating, Ducksalad ([2]; 250 g ai/ha)	Plant response rating, Barnyardgrass ([3]; 31 g ai/ha, scale 0 to 100)	Plant response rating, Barnyardgrass ([3]; 62 g ai/ha, scale 0 to 100)	Plant response rating, Barnyardgrass ([3]; 125 g ai/ha, scale 0 to 100)	Plant response rating, Barnyardgrass [3, 4]
COCCn1c(-c2cccc(F)c2)c(Cl)nc(C(=O)C2=C(O)CCCC2=O)c1=O [Compound 4, 5-chloro-6-(3-fluorophenyl)-3-[(2-hydroxy-6-oxo-1-cyclohexen-1-yl)carbonyl]-1-(2-methoxyethyl)-2(1H)pyrazinone]	75	75	75	80	0	0	0	30	60	65	75	85	0	0	0	30
COCCn1c(-c2cc(F)cc(F)c2)c(Cl)nc(C(=O)C2=C(O)CCCC2=O)c1=O [Compound 6, 5-chloro-6-(3,5-difluorophenyl)-3-[(2-hydroxy-6-oxo-1-cyclohexen-1-yl)carbonyl]-1-(2-methoxyethyl)-2(1H)-pyrazinone]	60	70	85	90	0	0	0	15	30	50	70	80	0	0	0	50
